Assay results published in publication PMC5458257, “Identification of JL1037 as a novel, specific, reversible lysine-specific demethylase 1 inhibitor that induce apoptosis and autophagy of AML cells” (Oncotarget, 2017).

Columns and labels:
Assay type in all cases: biochemical
[1] = biological target: T1, Lysine-specific demethylase 1 (LSD1) (Homo sapiens, UniProt O60341); assay: LSD1 Fluorimetric Drug Discovery kit (Enzo BML-AK544), HRP-coupled, H3K4me2 substrate
T1 construct: gene KDM1A

MAO-A = biological target: T2, MAO-A (Homo sapiens, UniProt P21397); assay: MAO-Glo luminescent enzyme assay (Promega V1401), selectivity test
T2 construct: gene MAOA
T2 sequence (P21397 1-527): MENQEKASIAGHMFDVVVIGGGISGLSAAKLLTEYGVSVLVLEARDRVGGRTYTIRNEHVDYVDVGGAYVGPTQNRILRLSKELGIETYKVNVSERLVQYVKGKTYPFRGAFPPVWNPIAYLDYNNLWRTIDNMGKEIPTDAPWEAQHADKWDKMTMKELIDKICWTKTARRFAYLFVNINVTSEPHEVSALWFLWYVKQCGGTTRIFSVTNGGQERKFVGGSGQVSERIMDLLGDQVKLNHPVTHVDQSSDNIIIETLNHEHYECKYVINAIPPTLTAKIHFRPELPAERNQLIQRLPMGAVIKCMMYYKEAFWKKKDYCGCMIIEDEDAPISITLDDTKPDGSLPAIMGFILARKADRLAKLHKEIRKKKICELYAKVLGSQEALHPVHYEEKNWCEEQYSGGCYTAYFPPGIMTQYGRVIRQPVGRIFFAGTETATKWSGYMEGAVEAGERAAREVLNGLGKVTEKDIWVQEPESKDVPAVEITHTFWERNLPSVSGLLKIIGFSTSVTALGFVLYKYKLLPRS
Source text: MAO-Glo luminescent enzyme assay (Promega V1401), selectivity test on MAO-A | JL1037 enzymatic inhibitory activity against LSD1, MAO-A and MAO-B.

MAO-B = biological target: T3, MAO-B (Homo sapiens, UniProt P27338); assay: as above
T3 construct: gene MAOB
T3 sequence (P27338 2-520): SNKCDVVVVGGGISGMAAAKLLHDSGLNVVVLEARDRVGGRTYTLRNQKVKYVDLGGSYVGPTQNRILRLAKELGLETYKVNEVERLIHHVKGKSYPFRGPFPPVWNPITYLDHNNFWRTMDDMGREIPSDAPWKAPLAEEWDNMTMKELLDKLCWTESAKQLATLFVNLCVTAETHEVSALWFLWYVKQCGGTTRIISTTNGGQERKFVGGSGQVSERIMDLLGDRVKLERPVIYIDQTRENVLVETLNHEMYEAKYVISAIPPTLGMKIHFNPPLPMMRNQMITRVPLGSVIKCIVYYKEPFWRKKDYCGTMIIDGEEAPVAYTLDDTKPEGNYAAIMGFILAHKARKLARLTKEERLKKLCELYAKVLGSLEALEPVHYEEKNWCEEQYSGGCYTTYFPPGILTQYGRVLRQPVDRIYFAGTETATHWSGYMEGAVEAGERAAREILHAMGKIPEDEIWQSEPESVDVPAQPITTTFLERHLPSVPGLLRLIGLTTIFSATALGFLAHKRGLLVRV
Source text: MAO-Glo luminescent enzyme assay (Promega V1401), selectivity test on MAO-B | JL1037 enzymatic inhibitory activity against LSD1, MAO-A and MAO-B.

IC50 [1]: 110 nM
IC50 (MAO-A): 1920 nM
IC50 (MAO-B): 1770 nM
Substance: JL1037
